Measurements reported in ChEMBL document CHEMBL3351492, “Novel 3,6-bis(imidazolidine)acridines as effective photosensitizers for photodynamic therapy” (Bioorg Med Chem, 2014).
Calls of active or inactive are those of the source. The rule behind the calls is not given here.

What was measured:
[1] = system: A2780; experiment: Cytotoxicity against human A2780 cells assessed as inhibition of cell viability for 72 hrs in 1.05 J/cm'2 UV-A irradiation by MTT assay; type: functional, cell-based; settings: A2780, light or radiation study
[2] = system: A2780; experiment: Genotoxicity in human A2780 cells assessed as DNA damage at 0.05 to 1 uM for 1 hr in 1.05 J/cm'2 UV-A irradiation measured after 12 hrs by comet assay; type: toxicity, cell-based; settings: a2780, 1 h
[3] = system: A2780; experiment: Induction of oxidative stress in human A2780 cells assessed as reactive oxygen species production at 0.5 uM for 1 hr in 1.05 J/cm'2 UV-A irradiation by DHE assay; type: functional, cell-based
[4] = system: A2780; experiment: Cytotoxicity against human A2780 cells assessed as inhibition of cell viability for 48 hrs in 1.05 J/cm'2 UV-A irradiation by MTT assay; type: functional, cell-based; settings: A2780, light or radiation study
[5] = system: A2780; experiment: Cytotoxicity against human A2780 cells assessed as inhibition of cell viability for 48 hrs in dark by MTT assay; type: functional, cell-based; settings: A2780, 48 h
[6] = system: L1210; experiment: Cytotoxicity against mouse L1210 cells assessed as inhibition of cell viability for 48 hrs in 1.05 J/cm'2 UV-A irradiation by MTT assay; type: functional, cell-based; settings: L1210, light or radiation study
[7] = system: A2780; experiment: Cytotoxicity against human A2780 cells assessed as inhibition of cell viability for 72 hrs in dark by MTT assay; type: functional, cell-based; settings: A2780, 72 h
[8] = system: L1210; experiment: Cytotoxicity against mouse L1210 cells assessed as inhibition of cell viability for 72 hrs in 1.05 J/cm'2 UV-A irradiation by MTT assay; type: functional, cell-based; settings: L1210, light or radiation study
[9] = system: A2780; experiment: Cell cycle arrest in human A2780 cells assessed as cells at sub G0 phase at 1 uM for 1 hr in 1.05 J/cm'2 UV-A irradiation measured after 4 hrs by PI staining/flow cytometry; type: functional
[10] = system: A2780; experiment: Induction of apoptosis in human A2780 cells assessed as effect on cell morphology at 1 uM for 1 hr in dark measured after 4 hrs by fluorescence microscopy; type: functional, cell-based
[11] = system: A2780; experiment: Cell cycle arrest in human A2780 cells assessed as cells at sub G0 phase at 1 uM after 4 hrs in dark by PI staining/flow cytometry; type: functional
[12] = system: A2780; experiment: Drug uptake in human A2780 cell lysosome at 0.5 uM irradiated for 1 hr followed by incubated with LysoTracker relative to non-irradiated cells; type: ADME, cell-based; settings: a2780, 1 h
[13] = system: A2780; experiment: Drug uptake in human A2780 cell nucleus at 0.5 uM irradiated for 1 hr followed by incubated with 0.1 uM SytoRed for 35 mins; type: ADME, cell-based; settings: a2780, 1 h
[14] = system: A2780; experiment: Induction of apoptosis in human A2780 cells assessed as blebbing of cell membrane at 1 uM for 1 hr in 1.05 J/cm'2 UV-A irradiation measured after 24 hrs by fluorescence microscopy; type: functional, cell-based
[15] = system: A2780; experiment: Drug uptake in human A2780 cell mitochondria assessed per focused cells at 0.5 uM for 1 hr in dark by incubated with 0.1 uM MitoRed for 15 mins; type: ADME, cell-based; settings: a2780, 1 h
[16] = Cytotoxicity against mouse NIH/3T3 cells assessed as inhibition of cell viability for 48 hrs in 1.05 J/cm'2 UV-A irradiation by MTT assay; type: cell-based; settings: NIH3T3, light or radiation study
[17] = system: A2780; experiment: Drug uptake in human A2780 cell nucleus at 3 uM irradiated for 1 hr followed by incubated with 0.1 uM SytoRed for 35 mins; type: ADME, cell-based; settings: a2780, 1 h
[18] = system: A2780; experiment: Induction of apoptosis in human A2780 cells assessed as DNA ladder formation at 1 uM for 1 hr in 1.05 J/cm'2 UV-A irradiation measured after 4 hrs by agarose gel; type: functional, cell-based
[19] = system: A2780; experiment: Drug uptake in human A2780 cell lysosome assessed per focused cells at 3 uM irradiated for 1 hr followed by incubated with LysoTracker; type: ADME, cell-based; settings: a2780, 1 h
[20] = Cytotoxicity against mouse NIH/3T3 cells assessed as inhibition of cell viability for 48 hrs in dark by MTT assay; type: cell-based; settings: NIH3T3, 48 h
[21] = Cytotoxicity against mouse NIH/3T3 cells assessed as inhibition of cell viability for 72 hrs in dark by MTT assay; type: cell-based; settings: NIH3T3, 72 h
[22] = system: A2780; experiment: Induction of apoptosis in human A2780 cells assessed as DNA ladder formation at 1 uM after 4 hrs in dark by agarose gel; type: functional, cell-based
[23] = system: A2780; experiment: Drug uptake in human A2780 cell autophagic vacoules at 0.5 uM irradiated for 1 hr followed by incubated with LysoTracker relative to non-irradiated cellsin presence of MDC; type: ADME, cell-based; settings: a2780, 1 h
[24] = system: A2780; experiment: Induction of apoptosis in human A2780 cells assessed as volume and condensation of DNA chromatin at 1 uM for 1 hr in 1.05 J/cm'2 UV-A irradiation measured after 4 hrs by fluorescence microscopy; type: functional, cell-based
[25] = system: A2780; experiment: Drug uptake in human A2780 cell mitochondria assessed per focused cells at 3 uM irradiated for 1 hr followed by incubated with 0.1 uM MitoRed for 15 mins; type: ADME, cell-based; settings: a2780, 1 h
[26] = system: A2780; experiment: Drug uptake in human A2780 cell mitochondria assessed per focused cells at 0.5 uM irradiated for 1 hr followed by incubated with 0.1 uM MitoRed for 15 mins; type: ADME, cell-based; settings: a2780, 1 h
[27] = Cytotoxicity against mouse NIH/3T3 cells assessed as inhibition of cell viability for 72 hrs in 1.05 J/cm'2 UV-A irradiation by MTT assay; type: cell-based; settings: NIH3T3, light or radiation study
[28] = system: A2780; experiment: Cell cycle arrest in human A2780 cells assessed as cells at S phase at 1 uM for 1 hr in 1.05 J/cm'2 UV-A irradiation measured after 4 hrs by PI staining/flow cytometry; type: functional

Compound	IC50 [1] [µM]	Activity [2]	Activity [3]	IC50 [4] [µM]	IC50 [5] [µM]	IC50 [6] [µM]	IC50 [7] [µM]	IC50 [8] [µM]	further results
CCCCCCN1C(=O)CN/C1=N\c1ccc2cc3ccc(/N=C4\NCC(=O)N4CCCCCC)cc3nc2c1.Cl	1.26	Non-toxic	Active	1.58	15.7	0.77	9.58	0.64	
CCCCCN1C(=O)CN/C1=N\c1ccc2cc3ccc(/N=C4\NCC(=O)N4CCCCC)cc3nc2c1.Cl	1.09	Non-toxic	Active	1.43	19.5	0.64	13.8	0.59	Activity [9]: 7.69%; Activity [10]: inactive; Activity [11]: 1.42%; Drug uptake [12]: 24%; Drug uptake [13]: Not Active; Activity [14]: Active; Drug uptake [15]: 7%; IC50 [16]: > 30 µM; Drug uptake [17]: Not Active; Activity [18]: Active; Drug uptake [19]: 6%; IC50 [20]: > 50 µM; IC50 [21]: > 50 µM; Activity [22]: inactive; Drug uptake [23]: Active; Activity [24]: Active; Drug uptake [25]: 7%; Drug uptake [26]: 2%; IC50 [27]: 28.4 µM; Activity [28]: 43%
Nc1ccc2cc3ccc(N)cc3nc2c1	0.1			0.33	0.48		0.18		
